Test results as given in US11802111B2, “Cyclobutyl amide monoacylglycerol lipase modulators” (Janssen Pharmaceutica NV, priority 2020, dated 2023).

Target: human MGL from HeLa cells (Homo sapiens (Human), UniProt Q99685)
Experiment: MGL in vitro activity assay ([glycerol-1,3-3H]-oleoyl glycerol hydrolysis, activated carbon filtration)
Assay type: biochemical
Settings: 300 nM [Glycerol-1,3-3H]-oleoyl glycerol, one hour
How it was run: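 Endogenous human MGL in HeLa cells/homogenates incubated 1 h with test compounds and 300 nM [glycerol-1,3-3H]-oleoyl glycerol. Released 3H-glycerol passing an activated carbon filter counted as activity; screening at 10 μM compound, top IC50 concentration set empirically.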

Sequence of human MGL from HeLa cells (Q99685 whole entry): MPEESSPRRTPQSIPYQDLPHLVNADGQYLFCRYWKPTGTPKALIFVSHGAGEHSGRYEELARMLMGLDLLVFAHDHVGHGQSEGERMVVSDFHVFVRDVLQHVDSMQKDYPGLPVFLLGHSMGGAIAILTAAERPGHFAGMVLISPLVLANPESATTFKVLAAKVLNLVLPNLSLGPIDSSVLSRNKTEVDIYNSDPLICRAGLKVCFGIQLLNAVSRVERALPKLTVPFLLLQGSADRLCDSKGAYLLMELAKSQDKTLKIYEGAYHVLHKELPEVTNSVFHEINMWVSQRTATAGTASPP

Row | Compound | IC50 [nM]
1 | COc1nc(OC2CCC3(CC2)CN(C(=O)[C@H]2C[C@@](C)(O)C2)C3)ccc1Cl [Example 461, (7-((5-Chloro-6-methoxypyridin-2-yl)oxy)-2-azaspiro[3.5]nonan-2-yl)((1s,3s)-3-hydroxy-3-methylcyclobutyl)methanone] | 6.1
2 | COc1ccc(Cl)c(OC2CCC3(CC2)CN(C(=O)[C@H]2C[C@@](C)(O)C2)C3)n1 [Example 462, (7-((3-Chloro-6-methoxypyridin-2-yl)oxy)-2-azaspiro[3.5]nonan-2-yl)((1s,3s)-3-hydroxy-3-methylcyclobutyl)methanone] | 6.8
3 | COc1cc(Cl)cnc1OC1CCC2(CC1)CN(C(=O)[C@H]1C[C@@](C)(O)C1)C2 [Example 463, (7-((5-Chloro-3-methoxypyridin-2-yl)oxy)-2-azaspiro[3.5]nonan-2-yl)((1s,3s)-3-hydroxy-3-methylcyclobutyl)methanone] | 9.7
4 | COc1ccnc(OC2CCC3(CC2)CN(C(=O)[C@H]2C[C@@](C)(O)C2)C3)c1Cl [Example 464, (7-((3-Chloro-4-methoxypyridin-2-yl)oxy)-2-azaspiro[3.5]nonan-2-yl)((1s,3s)-3-hydroxy-3-methylcyclobutyl)methanone] | 81
5 | Cc1cc(OC2CCC3(CC2)CN(C(=O)[C@H]2C[C@@](C)(O)C2)C3)nc(C)c1C(F)(F)F [Example 465, (7-((4,6-Dimethyl-5-(trifluoromethyl)pyridin-2-yl)oxy)-2-azaspiro[3.5]nonan-2-yl)((1s,3s)-3-hydroxy-3-methylcyclobutyl)methanone] | 2.7
6 | Cc1cc(C(F)(F)F)c(C)nc1OC1CCC2(CC1)CN(C(=O)[C@H]1C[C@@](C)(O)C1)C2 [Example 466, (7-((3,6-Dimethyl-5-(trifluoromethyl)pyridin-2-yl)oxy)-2-azaspiro[3.5]nonan-2-yl)((1s,3s)-3-hydroxy-3-methylcyclobutyl)methanone] | 0.1
7 | C[C@]1(O)C[C@@H](C(=O)N2CC3(CCC(Oc4ncc(C(F)(F)F)cn4)CC3)C2)C1 [Example 467, ((1s,3s)-3-Hydroxy-3-methylcyclobutyl)(7-((5-(trifluoromethyl)pyrimidin-2-yl)oxy)-2-azaspiro[3.5]nonan-2-yl)methanone] | 858
8 | C[C@]1(O)C[C@@H](C(=O)N2CC3(CCC(Oc4ccc5c(n4)CCC5)CC3)C2)C1 [Example 468, (7-((6,7-Dihydro-5H-cyclopenta[b]pyridin-2-yl)oxy)-2-azaspiro[3.5]nonan-2-yl)((1s,3s)-3-hydroxy-3-methylcyclobutyl)methanone] | 29
9 | Cn1ccc2ccc(OC3CCC4(CC3)CN(C(=O)[C@H]3C[C@@](C)(O)C3)C4)nc21 [Example 469, ((1s,3s)-3-Hydroxy-3-methylcyclobutyl)(7-((1-methyl-1H-pyrrolo[2,3-b]pyridin-6-yl)oxy)-2-azaspiro[3.5]nonan-2-yl)methanone] | 18
10 | Cc1cc(OC2CCC3(CC2)CN(C(=O)[C@H]2C[C@@](C)(O)C2)C3)nc2c1ccn2C [Example 470, (7-((1,4-Dimethyl-1H-pyrrolo[2,3-b]pyridin-6-yl)oxy)-2-azaspiro[3.5]nonan-2-yl)((1s,3s)-3-hydroxy-3-methylcyclobutyl)methanone] | 11
11 | Cc1cn(C)c2nc(OC3CCC4(CC3)CN(C(=O)[C@H]3C[C@@](C)(O)C3)C4)ccc12 [Example 471, (7-((1,3-Dimethyl-1H-pyrrolo[2,3-b]pyridin-6-yl)oxy)-2-azaspiro[3.5]nonan-2-yl)((1s,3s)-3-hydroxy-3-methylcyclobutyl)methanone] | 2
12 | Cc1cc2ccc(OC3CCC4(CC3)CN(C(=O)[C@H]3C[C@@](C)(O)C3)C4)nc2n1C [Example 472, (7-((1,2-Dimethyl-1H-pyrrolo[2,3-b]pyridin-6-yl)oxy)-2-azaspiro[3.5]nonan-2-yl)((1s,3s)-3-hydroxy-3-methylcyclobutyl)methanone] | 26
13 | Cc1cc2ccn(C)c2nc1OC1CCC2(CC1)CN(C(=O)[C@H]1C[C@@](C)(O)C1)C2 [Example 473, (7-((1,5-Dimethyl-1H-pyrrolo[2,3-b]pyridin-6-yl)oxy)-2-azaspiro[3.5]nonan-2-yl)((1s,3s)-3-hydroxy-3-methylcyclobutyl)methanone] | 1.2
14 | Cn1cc(F)c2ccc(OC3CCC4(CC3)CN(C(=O)[C@H]3C[C@@](C)(O)C3)C4)nc21 [Example 474, (7-((3-Fluoro-1-methyl-1H-pyrrolo[2,3-b]pyridin-6-yl)oxy)-2-azaspiro[3.5]nonan-2-yl)((1s,3s)-3-hydroxy-3-methylcyclobutyl)methanone] | 5.5
15 | CCn1cc(F)c2ccc(OC3CCC4(CC3)CN(C(=O)[C@H]3C[C@@](C)(O)C3)C4)nc21 [Example 475, (7-((1-Ethyl-3-fluoro-1H-pyrrolo[2,3-b]pyridin-6-yl)oxy)-2-azaspiro[3.5]nonan-2-yl)((1s,3s)-3-hydroxy-3-methylcyclobutyl)methanone] | 4.6
16 | Cn1cc(C(F)(F)F)c2ccc(OC3CCC4(CC3)CN(C(=O)[C@H]3C[C@@](C)(O)C3)C4)nc21 [Example 476, ((1s,3s)-3-Hydroxy-3-methylcyclobutyl)(7-((1-methyl-3-(trifluoromethyl)-1H-pyrrolo[2,3-b]pyridin-6-yl)oxy)-2-azaspiro[3.5]nonan-2-yl)methanone] | 1.4
17 | Cn1ncc2ccc(OC3CCC4(CC3)CN(C(=O)[C@H]3C[C@@](C)(O)C3)C4)nc21 [Example 477, ((1s,3s)-3-Hydroxy-3-methylcyclobutyl)(7-((1-methyl-1H-pyrazolo[3,4-b]pyridin-6-yl)oxy)-2-azaspiro[3.5]nonan-2-yl)methanone] | 146
18 | COc1cc(C)cc(C2CC3(CCN(C(=O)[C@H]4C[C@@](C)(O)C4)CC3)C2)c1 [Example 478, ((1s,3s)-3-Hydroxy-3-methylcyclobutyl)(2-(3-methoxy-5-methylphenyl)-7-azaspiro[3.5]nonan-7-yl)methanone] | 203
19 | Cc1cc(C(F)(F)F)ccc1OC1CC2(CCN(C(=O)[C@H]3C[C@@](C)(O)C3)CC2)C1 [Example 479, ((1s,3s)-3-Hydroxy-3-methylcyclobutyl)(2-(2-methyl-4-(trifluoromethyl)phenoxy)-7-azaspiro[3.5]nonan-7-yl)methanone] | 3.1
20 | Cc1cc(OC2CC3(CCN(C(=O)[C@H]4C[C@@](C)(O)C4)CC3)C2)ccc1C(F)(F)F [Example 480, ((1s,3s)-3-Hydroxy-3-methylcyclobutyl)(2-(3-methyl-4-(trifluoromethyl)phenoxy)-7-azaspiro[3.5]nonan-7-yl)methanone] | 5.8
21 | Cc1cc(C(F)(F)F)cnc1OC1CC2(CCN(C(=O)[C@H]3C[C@@](C)(O)C3)CC2)C1 [Example 481, ((1s,3s)-3-Hydroxy-3-methylcyclobutyl)(2-((3-methyl-5-(trifluoromethyl)pyridin-2-yl)oxy)-7-azaspiro[3.5]nonan-7-yl)methanone] | 15
22 | Cc1nc(OC2CC3(CCN(C(=O)[C@H]4C[C@@](C)(O)C4)CC3)C2)ccc1C(F)(F)F [Example 482, ((1s,3s)-3-Hydroxy-3-methylcyclobutyl)(2-((6-methyl-5-(trifluoromethyl)pyridin-2-yl)oxy)-7-azaspiro[3.5]nonan-7-yl)methanone] | 61
